Assay results as given in US8138167B2, “Methods for treating lung cancers” (Oncotherapy Science, Inc., priority 2006, dated 2012).
Like-named read-outs stand apart in the source and are kept apart here.

Columns and labels:
PC-9 cells = conditions: gefitinib-sensitive, amphiregulin-nonexpressing NSCLC line PC-9; upon autocrine secretion of amphiregulin; cited from earlier work
lung cancer = conditions: cited from earlier work
[1] = test system: progressive non-small-cell lung cancer; assay: gefitinib therapy (250 mg/day) of 50 patients with progressive non-small-cell lung cancer, overall evaluation of tumor response
[2] = test system: advanced non-small-cell lung cancer; conditions: Japanese patients with advanced NSCLC treated since approval; cited from earlier work
[3] = 50 progressive NSCLC patients, gefitinib 250 mg/day, evaluation after four months
[4] = of 50 patients after gefitinib therapy

Compound: COc1cc2ncnc(Nc3ccc(F)c(Cl)c3)c2cc1OCCCN1CCOCC1 [gefitinib, N-(3-chloro-4-fluorophenyl)-7-methoxy-6-(3-morpholinopropoxy)quinazolin-4-amine]
- antitumor activity of gefitinib on PC-9 cells (PC-9 cells): dramatically reduced
- median survival time (lung cancer; adenocarcinoma patients, gefitinib arm (placebo […])): 6.3 months
- median survival time (lung cancer; all parent populations, gefitinib arm (placebo 5.1)): 5.6 months
- disease control rate (CR+PR+SD/CR+PR+SD+PD) [1, 3]: 40.0%
- tumor response rate (CR+PR/CR+PR+SD+PD) [1, 3]: 16.0%
- patients classified as CR [1, 4]: none
- patients classified as PD [1, 4]: 30 patients
- patients classified as PR [1, 4]: eight
- patients classified as SD [1, 4]: 12 patients
- patients showing no improvement in symptoms [2]: 60%
